Test results taken from US20220153751A1, “BIFUNCTIONAL COMPOUNDS” (BioTheryX, Inc., priority 2018, published 2022).

Columns and labels:
Type in all cases: cell-based
TNF-α = TNF-α inhibition assay, LPS-induced PBMCs / CD14+ monocytes (Meso Scale); settings: 1 h pretreatment, 100 ng/mL LPS 18-24 h
Procedure, shortened: (§1)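 Thawed human PBMCs or CD14+ mobilized peripheral blood monocytes, 200,000 cells/well in RPMI-1640/10% FBS, pretreated with compound or DMSO 1 h, then stimulated with 100 ng/mL LPS for 18-24 h. Supernatant cytokine measured by Meso Scale; % inhibition binned A–D (<50%, 50–70%, 70–90%, ≥90%), fold-change binned A–D (≤0.1, ≤0.5, ≤1, >1).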

IKAROS = target: T1, IKAROS (Homo sapiens, UniProt Q13422+Q96SW2); experiment: IKAROS degradation assay (Western blot, MV-4-11 cells); settings: MV4-11, 6-8 h
T1 construct: endogenous in cells; host or cells: MV-4-11
T1 sequence (Q13422 whole entry): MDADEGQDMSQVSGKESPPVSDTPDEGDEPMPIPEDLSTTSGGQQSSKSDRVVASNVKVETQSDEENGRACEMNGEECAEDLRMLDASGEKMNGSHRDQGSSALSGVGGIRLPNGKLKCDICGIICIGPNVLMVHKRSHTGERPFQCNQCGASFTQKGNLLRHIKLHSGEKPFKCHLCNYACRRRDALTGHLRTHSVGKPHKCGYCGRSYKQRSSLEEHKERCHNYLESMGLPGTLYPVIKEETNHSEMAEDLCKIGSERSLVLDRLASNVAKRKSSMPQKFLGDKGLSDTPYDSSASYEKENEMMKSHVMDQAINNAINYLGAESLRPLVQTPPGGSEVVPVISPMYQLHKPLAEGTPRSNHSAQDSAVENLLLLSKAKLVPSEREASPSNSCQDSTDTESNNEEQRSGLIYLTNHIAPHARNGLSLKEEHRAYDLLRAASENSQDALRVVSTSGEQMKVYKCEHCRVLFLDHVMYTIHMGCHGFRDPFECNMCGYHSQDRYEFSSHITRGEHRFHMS
T1 sequence (Q96SW2 whole entry): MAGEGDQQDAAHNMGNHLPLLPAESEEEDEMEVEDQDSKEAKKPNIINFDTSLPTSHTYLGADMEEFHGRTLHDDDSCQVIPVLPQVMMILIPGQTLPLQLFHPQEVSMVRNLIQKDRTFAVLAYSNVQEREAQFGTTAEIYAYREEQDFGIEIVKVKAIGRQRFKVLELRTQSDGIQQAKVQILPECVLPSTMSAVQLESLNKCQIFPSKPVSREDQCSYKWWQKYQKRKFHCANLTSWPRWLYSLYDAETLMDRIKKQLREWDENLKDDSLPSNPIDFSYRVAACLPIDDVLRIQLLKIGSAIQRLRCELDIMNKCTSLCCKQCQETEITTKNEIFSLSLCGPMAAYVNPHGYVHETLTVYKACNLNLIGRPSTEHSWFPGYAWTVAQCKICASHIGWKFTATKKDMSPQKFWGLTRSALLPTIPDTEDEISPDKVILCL
T1 sequence (Q16531 whole entry partner): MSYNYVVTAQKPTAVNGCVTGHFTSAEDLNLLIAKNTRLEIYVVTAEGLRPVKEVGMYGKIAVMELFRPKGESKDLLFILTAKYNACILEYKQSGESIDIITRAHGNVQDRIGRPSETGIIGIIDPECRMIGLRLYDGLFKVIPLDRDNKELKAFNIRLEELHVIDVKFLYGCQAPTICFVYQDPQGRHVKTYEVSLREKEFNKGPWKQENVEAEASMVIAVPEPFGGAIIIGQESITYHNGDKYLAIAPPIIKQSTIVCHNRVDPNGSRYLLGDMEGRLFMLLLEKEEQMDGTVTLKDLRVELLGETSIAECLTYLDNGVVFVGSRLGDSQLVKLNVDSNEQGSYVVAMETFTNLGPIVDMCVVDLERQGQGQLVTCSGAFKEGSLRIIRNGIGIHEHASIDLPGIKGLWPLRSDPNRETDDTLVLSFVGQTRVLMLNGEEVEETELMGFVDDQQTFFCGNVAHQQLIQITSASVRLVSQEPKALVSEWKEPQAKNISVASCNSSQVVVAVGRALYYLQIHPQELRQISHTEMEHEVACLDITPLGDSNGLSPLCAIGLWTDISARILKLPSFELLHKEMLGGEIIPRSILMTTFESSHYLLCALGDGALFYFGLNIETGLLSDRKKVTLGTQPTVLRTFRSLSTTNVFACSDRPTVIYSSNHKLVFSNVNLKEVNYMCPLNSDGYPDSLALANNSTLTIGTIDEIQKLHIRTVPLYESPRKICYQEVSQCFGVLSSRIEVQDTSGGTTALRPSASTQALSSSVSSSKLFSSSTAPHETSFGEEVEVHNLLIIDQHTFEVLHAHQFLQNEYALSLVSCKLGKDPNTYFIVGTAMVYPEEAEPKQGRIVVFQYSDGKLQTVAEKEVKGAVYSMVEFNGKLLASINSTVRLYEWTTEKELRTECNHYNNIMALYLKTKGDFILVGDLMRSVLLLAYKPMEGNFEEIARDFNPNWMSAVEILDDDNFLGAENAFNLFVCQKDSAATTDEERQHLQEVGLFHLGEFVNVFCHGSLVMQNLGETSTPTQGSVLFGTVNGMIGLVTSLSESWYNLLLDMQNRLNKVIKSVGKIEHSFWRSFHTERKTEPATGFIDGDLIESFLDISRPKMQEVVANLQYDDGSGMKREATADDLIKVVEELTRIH
Procedure, shortened: (§2)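 Western blot, infrared fluorescence read-out: % degradation versus DMSO after 6-8 h compound treatment of ~10^6 cells/mL. RIPA whole-cell lysates on 4-12% gels, nitrocellulose transfer. Binned A <25%, B 25–<50%, C 50–<75%, D ≥75%.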

IL-2 = IL-2 fold-change assay, anti-CD3 stimulated PBMCs (Mesoscale); settings: PBMC, PBMCs on anti-human CD3, 24 h, fold difference from the DMSO control
Description: For the IL-2 analysis, 96 well plates were precoated with 1 μg/mL anti-human CD3 antibody (OK3, eBioscience Inc., San Diego, Calif.). After washing with PBS, the indicated compound was added (50 μL/well) followed by PBMCs diluted at 3-4 million cells/mL (150 μL/well). Plates were incubated for 24 h and the supernatants collected for Mesoscale IL-2 analysis. IL-2 activity is measured as fold difference from the DMSO control.
In Table 6, the % inhibition values are reported as “A”, “B”, “C”, or “D”. “A” represents a % inhibition value of less than 50% (value <50%). “B” represents a % inhibition value of equal to or more than 50% and less than 70% (50%≤value<70%). “C” represents a % inhibition value of equal to or more than 70% and less than 90% (70%≤value<90%). “D” represents a % inhibition value of equal or more than 90% (value ≥90%). In Table 7, the fold-change values are reported as “A”, “B”, “C”, or “D”. “A” represents a fold-change value of equal to or less than 0.1 (value ≤0.1). “B” represents a fold-change value of more than 0.1 and equal to or less than 0.5 (0.1<value≤0.5). “C” represents a fold-change value of more than 0.5 and equal to or less than 1 (0.5<value≤1). “D” represents a fold-change value of more than 1 (value >1).

IL-1β = IL-1β inhibition assay, LPS-induced PBMCs / CD14+ monocytes (Meso Scale); settings: 1 h pretreatment, 100 ng/mL LPS 18-24 h
Procedure, shortened: as §1

MOLM-13 cells = experiment: MOLM-13 cell viability assay (CellTiter-Glo); settings: Homo sapiens, MOLM-13, 72 h, 3 days, read-out: MOLM-13 Cell Viability % DMSO at 1 μM
Procedure, shortened: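 MOLM-13 cells at 2500 cells/well were exposed to compound for 3 days at 37 °C. Viability was read by CellTiter-Glo luminescence and expressed as % of DMSO control, binned A (<50%), B (50–<70%), C (70–<90%) or D (≥90%).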

IL-6 = IL-6 inhibition assay, LPS-induced PBMCs / CD14+ monocytes (Meso Scale); settings: 1 h pretreatment, 100 ng/mL LPS 18-24 h
Procedure, shortened: as §1

GSPT1 = target: T2, GSPT1 (Homo sapiens, UniProt P15170+Q96SW2); experiment: GSPT1 degradation assay (Western blot, MV-4-11 cells); settings: MV4-11, 6-8 h
T2 construct: Whole cell extracts were prepared using RIPA buffer; endogenous in cells; host or cells: MV-4-11
T2 sequence (P15170 whole entry): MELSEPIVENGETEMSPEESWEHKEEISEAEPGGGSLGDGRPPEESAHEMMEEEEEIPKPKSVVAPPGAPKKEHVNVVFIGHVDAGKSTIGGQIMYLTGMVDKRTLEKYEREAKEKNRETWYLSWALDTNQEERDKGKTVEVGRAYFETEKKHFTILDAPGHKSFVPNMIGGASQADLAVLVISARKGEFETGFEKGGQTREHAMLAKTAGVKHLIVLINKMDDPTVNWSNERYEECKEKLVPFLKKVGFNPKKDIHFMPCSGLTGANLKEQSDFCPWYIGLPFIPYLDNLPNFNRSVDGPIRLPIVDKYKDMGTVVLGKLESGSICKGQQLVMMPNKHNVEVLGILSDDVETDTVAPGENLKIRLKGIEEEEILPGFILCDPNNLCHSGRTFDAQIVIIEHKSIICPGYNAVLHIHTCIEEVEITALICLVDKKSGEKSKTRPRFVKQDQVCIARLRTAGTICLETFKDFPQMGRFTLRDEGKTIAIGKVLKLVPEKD
T2 sequence (Q96SW2 whole entry): as the sequence (Q96SW2 whole entry) above
T2 sequence (Q16531 whole entry partner): as the sequence (Q16531 whole entry partner) above
Procedure, shortened: as §2

CDK16 = target: T3, CDK16 (Homo sapiens, UniProt Q00536); experiment: CDK16 degradation assay (Western blot, MV-4-11 cells); settings: 6-8 h; for Dmax at 0.1 µM: MV4-11, 0.1 μM; for Dmax at 1 µM: MV4-11, 1 μM
T3 construct: Whole cell extracts were prepared using RIPA buffer; endogenous in cells; host or cells: MV-4-11
T3 sequence (Q00536 whole entry): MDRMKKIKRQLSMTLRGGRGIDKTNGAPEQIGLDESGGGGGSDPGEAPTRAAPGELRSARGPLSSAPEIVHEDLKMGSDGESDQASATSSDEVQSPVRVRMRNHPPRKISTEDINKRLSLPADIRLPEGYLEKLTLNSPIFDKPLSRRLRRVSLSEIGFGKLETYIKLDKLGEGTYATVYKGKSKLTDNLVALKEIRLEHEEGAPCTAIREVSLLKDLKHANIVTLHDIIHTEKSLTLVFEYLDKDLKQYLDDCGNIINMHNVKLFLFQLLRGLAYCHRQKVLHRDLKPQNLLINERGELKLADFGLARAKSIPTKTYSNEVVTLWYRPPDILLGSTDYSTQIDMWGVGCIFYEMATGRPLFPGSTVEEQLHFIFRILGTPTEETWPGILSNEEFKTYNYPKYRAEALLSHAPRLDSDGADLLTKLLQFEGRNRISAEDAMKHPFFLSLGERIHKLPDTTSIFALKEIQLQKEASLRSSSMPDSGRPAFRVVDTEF
Procedure, shortened: as §2

CDK9 = target: T4, CDK9 (Homo sapiens, UniProt P50750); experiment: CDK9 degradation assay (Western blot, MV-4-11 cells); settings: 6-8 h; for Dmax at 0.1 µM: MV4-11, 0.1 μM; for Dmax at 1 µM: MV4-11, 1 μM
T4 construct: Whole cell extracts were prepared using RIPA buffer; endogenous in cells; host or cells: MV-4-11
T4 sequence (P50750 whole entry): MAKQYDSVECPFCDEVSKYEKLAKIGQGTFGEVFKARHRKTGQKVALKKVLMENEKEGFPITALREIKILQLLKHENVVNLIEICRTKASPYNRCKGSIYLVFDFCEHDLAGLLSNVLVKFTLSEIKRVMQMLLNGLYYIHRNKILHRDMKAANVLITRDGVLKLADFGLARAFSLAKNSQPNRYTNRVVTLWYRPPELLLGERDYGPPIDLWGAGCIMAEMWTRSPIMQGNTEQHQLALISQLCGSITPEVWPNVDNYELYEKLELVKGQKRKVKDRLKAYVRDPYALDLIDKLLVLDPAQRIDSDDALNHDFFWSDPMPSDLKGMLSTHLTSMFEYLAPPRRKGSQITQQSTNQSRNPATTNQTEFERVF
Procedure, shortened: as §2

Row | Dmax at 1 µM (IKAROS) [%] | Dmax at 1 µM (GSPT1) [%] | Dmax at 0.1 µM (CDK16) [%] | Dmax at 1 µM (CDK16) [%] | Dmax at 0.1 µM (CDK9) [%] | Dmax at 1 µM (CDK9) [%] | Compound | inhibition at 1 µM (TNF-α) [%] | fold induction at 1 µM (IL-2) | inhibition at 1 µM (IL-1β) [%] | viability at 1 µM (MOLM-13 cells) [%] | inhibition at 1 µM (IL-6) [%]
1 | 25 to 50 | – | – | – | – | – | CC(C)(C)c1cnc(CSc2cnc(NC(=O)C3CCN(CC(=O)NCCOCCNC(=O)NCc4scc5c4CN(C4CCC(=O)NC4=O)C5=O)CC3)s2)o1 (stereo not drawn) [Compound 2, 3-{6-Oxo-2-[(3-{2-[2-(2-{4-[(5-{[5-(tert-butyl)-1,3-oxazol-2-yl]methylthio}-1,3-thiazol-2-ylamino)carbonyl]-1-piperidyl}acetylamino)ethoxy]ethyl}ureido)methyl]-3-thia-7-azabicyclo[3.3.0]octa-1,4-dien-7-yl}-2,6-piperidinedione] | 70 to 90 | 0.1 to 0.5 | > 90 | > 90 | > 90
2 | 25 to 50 | – | – | – | – | – | CC(C)(C)c1cnc(CSc2cnc(NC(=O)C3CCN(CCCCCCCNCC(=O)NCc4cc5c(s4)C(=O)N(C4CCC(=O)NC4=O)C5)CC3)s2)o1 (stereo not drawn) [Compound 57, N-(5-(((5-(tert-butyl)oxazol-2-yl)methyl)thio)thiazol-2-yl)-1-(7-((2-(((5-(2,6-dioxopiperidin-3-yl)-6-oxo-5,6-dihydro-4H-thieno[2,3-c]pyrrol-2-yl)methyl)amino)-2-oxoethyl)amino)heptyl)piperidine-4-carboxamide] | > 90 | ≤ 0.1 | > 90 | > 90 | > 90
3 | 25 to 50 | < 25 | – | – | – | – | Cn1ncc(-c2cc(N[C@H]3CC[C@H](NCC(=O)NCCNCC(=O)NCc4cc5c(s4)C(=O)N(C4CCC(=O)NC4=O)C5)CC3)ncc2F)c1CC1CC1 (stereo partly drawn) [Compound 63, 2-(((1r,4r)-4-((4-(5-(cyclopropylmethyl)-1-methyl-1H-pyrazol-4-yl)-5-fluoropyridin-2-yl)amino)cyclohexyl)amino)-N-(2-((2-(((5-(2,6-dioxopiperidin-3-yl)-6-oxo-5,6-dihydro-4H-thieno[2,3-c]pyrrol-2-yl)methyl)amino)-2-oxoethyl)amino)ethyl)acetamide] | – | > 1 | – | > 90 | –
4 | ≥ 75 | – | – | – | – | – | Cn1ncc(-c2nc(N[C@H]3CC[C@H](NCCCCCCNC(=O)NCc4cc5c(s4)C(=O)N(C4CCC(=O)NC4=O)C5)CC3)ncc2F)c1CC1CC1 (stereo partly drawn) [Compound 21, 1-(6-(((1r,4r)-4-((4-(5-(cyclopropylmethyl)-1-methyl-1H-pyrazol-4-yl)-5-fluoropyrimidin-2-yl)amino)cyclohexyl)amino)hexyl)-3-((5-(2,6-dioxopiperidin-3-yl)-6-oxo-5,6-dihydro-4H-thieno[2,3-c]pyrrol-2-yl)methyl)urea] | < 50 | 0.1 to 0.5 | < 50 | > 90 | < 50
5 | 50 to 75 | < 25 | – | – | – | – | Cn1ncc(-c2nc(N[C@H]3CC[C@H](NCC(=O)NCCOCCOCC(=O)NCc4ccc(COc5cccc6c5CN(C5CCC(=O)NC5=O)C6=O)cc4)CC3)ncc2Cl)c1CC1CC1 (stereo partly drawn) [Compound 28, 2-(((1r,4r)-4-((5-chloro-4-(5-(cyclopropylmethyl)-1-methyl-1H-pyrazol-4-yl)pyrimidin-2-yl)amino)cyclohexyl)amino)-N-(2-(2-(2-((4-(((2-(2,6-dioxopiperidin-3-yl)-1-oxoisoindolin-4-yl)oxy)methyl)benzyl)amino)-2-oxoethoxy)ethoxy)ethyl)acetamide] | > 90 | ≤ 0.1 | > 90 | > 90 | > 90
6 | 25 to 50 | – | – | – | – | – | Cc1nc2c(CNC(=O)NCCCCCCCCN[C@H]3CC[C@H](Nc4ncc(Cl)c(-c5cnn(C)c5CC5CC5)n4)CC3)scc2c(=O)n1C1CCC(=O)NC1=O (stereo partly drawn) [Compound 61, 1-(8-(((1r,4r)-4-((5-chloro-4-(5-(cyclopropylmethyl)-1-methyl-1H-pyrazol-4-yl)pyrimidin-2-yl)amino)cyclohexyl)amino)octyl)-3-((3-(2,6-dioxopiperidin-3-yl)-2-methyl-4-oxo-3,4-dihydrothieno[3,4-d]pyrimidin-7-yl)methyl)urea] | > 90 | 0.1 to 0.5 | > 90 | > 90 | > 90
7 | 50 to 75 | – | 25 to 50 | < 25 | 50 to 75 | ≥ 75 | CC(C)(C)c1cnc(CSc2cnc(NC(=O)C3CCN(CC(=O)NCCOCCOCCNCC(=O)NCc4scc5c4CN(C4CCC(=O)NC4=O)C5=O)CC3)s2)o1 (stereo not drawn) [Compound 26, N-(5-(((5-(tert-butyl)oxazol-2-yl)methyl)thio)thiazol-2-yl)-1-(1-(5-(2,6-dioxopiperidin-3-yl)-4-oxo-5,6-dihydro-4H-thieno[3,4-c]pyrrol-1-yl)-3,15-dioxo-8,11-dioxa-2,5,14-triazahexadecan-16-yl)piperidine-4-carboxamide] | 70 to 90 | ≤ 0.1 | > 90 | > 90 | > 90
8 | 25 to 50 | – | < 25 | < 25 | 25 to 50 | ≥ 75 | CC(C)(C)c1cnc(CSc2cnc(NC(=O)C3CCN(CC(=O)NCCOCCOCCOCCNCC(=O)NCc4cc5c(s4)C(=O)N(C4CCC(=O)NC4=O)C5)CC3)s2)o1 (stereo not drawn) [Compound 42, N-(5-(((5-(tert-butyl)oxazol-2-yl)methyl)thio)thiazol-2-yl)-1-(1-(5-(2,6-dioxopiperidin-3-yl)-6-oxo-5,6-dihydro-4H-thieno[2,3-c]pyrrol-2-yl)-3,18-dioxo-8,11,14-trioxa-2,5,17-triazanonadecan-19-yl)piperidine-4-carboxamide] | < 50 | 0.1 to 0.5 | > 90 | 70 to 90 | > 90
9 | – | – | – | – | – | – | Cn1ncc(-c2cc(N[C@H]3CC[C@H](NCCCCCCCCNC(=O)NCc4cc5c(s4)C(=O)N(C4CCC(=O)NC4=O)C5)CC3)ncc2F)c1CC1CC1 (stereo partly drawn) [Compound 59, 1-(8-(((1r,4r)-4-((4-(5-(cyclopropylmethyl)-1-methyl-1H-pyrazol-4-yl)-5-fluoropyridin-2-yl)amino)cyclohexyl)amino)octyl)-3-((5-(2,6-dioxopiperidin-3-yl)-6-oxo-5,6-dihydro-4H-thieno[2,3-c]pyrrol-2-yl)methyl)urea] | < 50 | 0.5 to 1 | 70 to 90 | > 90 | 70 to 90
10 | – | – | < 25 | < 25 | 50 to 75 | ≥ 75 | CC(C)(C)c1cnc(CSc2cnc(NC(=O)C3CCN(CC(=O)NCCOCCOCCNC(=O)NCc4cc5c(s4)C(=O)N(C4CCC(=O)NC4=O)C5)CC3)s2)o1 (stereo not drawn) [Compound 13, N-(5-(((5-(tert-butyl)oxazol-2-yl)methyl)thio)thiazol-2-yl)-1-(1-(5-(2,6-dioxopiperidin-3-yl)-6-oxo-5,6-dihydro-4H-thieno[2,3-c]pyrrol-2-yl)-3,14-dioxo-7,10-dioxa-2,4,13-triazapentadecan-15-yl)piperidine-4-carboxamide] | > 90 | ≤ 0.1 | > 90 | > 90 | > 90
